Values after ≈ are worked out from the molar mass of the structure shown. Values joined by “and” are separate entries in the source; they are usually repeats but may differ in a detail not shown here. Equal values may be shown once. Read-outs that look alike come from different tables or passages of the source.
How the values were obtained:
in vitro = conditions: human
NIS [1] = target: T1, NIS (Rattus norvegicus, UniProt Q63008); assay: NIS-inhibition assay (iodide uptake, Sandell–Kolthoff reaction) on FRTL-5; assay type: cell-based; conditions: mean ± SD, ≥ 3 independent experiments; 2 h exposure; SK reaction
T1 construct: the endogenously NIS-expressing rat FRTL-5 cell line; host or cells: FRTL-5 (CVCL_0265)
T1 sequence (Q63008 1-618): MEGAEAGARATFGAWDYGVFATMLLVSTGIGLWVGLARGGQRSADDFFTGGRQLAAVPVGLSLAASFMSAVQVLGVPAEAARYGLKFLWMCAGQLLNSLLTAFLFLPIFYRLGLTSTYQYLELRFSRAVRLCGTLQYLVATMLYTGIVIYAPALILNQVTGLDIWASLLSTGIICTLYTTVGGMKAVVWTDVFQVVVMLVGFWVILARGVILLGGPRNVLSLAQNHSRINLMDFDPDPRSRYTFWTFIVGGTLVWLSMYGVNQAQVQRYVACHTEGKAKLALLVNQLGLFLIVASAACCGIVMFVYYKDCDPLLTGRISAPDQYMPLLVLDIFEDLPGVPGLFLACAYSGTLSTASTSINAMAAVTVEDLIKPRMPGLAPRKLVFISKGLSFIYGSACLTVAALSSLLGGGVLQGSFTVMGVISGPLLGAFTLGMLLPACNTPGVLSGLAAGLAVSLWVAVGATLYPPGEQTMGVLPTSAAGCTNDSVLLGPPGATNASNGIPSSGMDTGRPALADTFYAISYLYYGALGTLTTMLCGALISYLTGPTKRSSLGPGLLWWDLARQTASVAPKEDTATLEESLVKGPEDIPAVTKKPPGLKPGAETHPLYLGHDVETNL

human NIS [2] = target: T2, human NIS (Homo sapiens, UniProt Q92911); design: method as in Dong et al., 2019; conditions: MCF7hNIS; SK; ref Dong et al., 2019; read-out: Data from literature NIS IC20; cited from earlier work
T2 sequence (Q92911 1-643): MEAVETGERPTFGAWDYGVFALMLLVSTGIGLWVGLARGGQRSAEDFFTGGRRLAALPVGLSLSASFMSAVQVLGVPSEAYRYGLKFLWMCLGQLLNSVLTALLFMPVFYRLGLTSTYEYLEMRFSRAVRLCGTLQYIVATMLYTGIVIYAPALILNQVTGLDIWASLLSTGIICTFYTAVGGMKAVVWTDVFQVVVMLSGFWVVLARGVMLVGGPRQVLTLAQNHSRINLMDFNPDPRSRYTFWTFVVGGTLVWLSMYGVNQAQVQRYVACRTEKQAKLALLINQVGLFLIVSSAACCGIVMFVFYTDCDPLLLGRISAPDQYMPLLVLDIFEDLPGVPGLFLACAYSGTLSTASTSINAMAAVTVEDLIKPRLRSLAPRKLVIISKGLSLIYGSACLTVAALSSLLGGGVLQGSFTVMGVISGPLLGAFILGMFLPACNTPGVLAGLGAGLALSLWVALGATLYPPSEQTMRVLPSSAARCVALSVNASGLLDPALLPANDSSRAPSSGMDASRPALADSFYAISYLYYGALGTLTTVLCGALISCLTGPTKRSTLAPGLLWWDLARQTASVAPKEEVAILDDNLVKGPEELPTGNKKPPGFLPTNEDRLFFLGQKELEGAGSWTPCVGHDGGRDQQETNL

human NIS [3] = target: T2, human NIS; assay: NIS-inhibition assay (iodide uptake, Sandell–Kolthoff reaction) on HEK293T NIS C; assay type: cell-based; design: host or cells: HEK293T (lentiviral transduction, puromycin selection, GFP sorting; lines NIS 02 and NIS C)
human NIS [4] = target: T2, human NIS; design: host or cells: HEK293T (lentiviral transduction, puromycin selection, GFP sorting; lines NIS 02 and NIS C); conditions: hNIS-HEK293T-EPA, RAIU, cited from earlier work; for IC20: read-out: Data from literature NIS IC20; for IC50: read-out: Data from literature NIS IC50
human NIS [5] = target: T2, human NIS
human NIS [6] = target: T2, human NIS; design: host or cells: HEK293T (lentiviral transduction, puromycin selection, GFP sorting; lines NIS 02 and NIS C); method as in Dong et al., 2019; conditions: hNIS-HEK293T-EPA; SK; ref Dong et al., 2019; cited from earlier work
[7] = design: method as in PubChem https://pubchem.ncbi.nlm.nih.gov/; conditions: ref PubChem https://pubchem.ncbi.nlm.nih.gov/; cited from earlier work
human NIS [8] = target: T2, human NIS; assay: Biotransformation (BTS, rat S9)-augmented NIS-inhibition assay, HEK293T NIS02
[9] = design: method as in PubChem https://pubchem.ncbi.nlm.nih.gov/; conditions: ref PubChem https://pubchem.ncbi.nlm.nih.gov/; cited from earlier work; remark: listed apart in the source
human NIS [10] = target: T2, human NIS; assay: NIS-inhibition assay (iodide uptake, Sandell–Kolthoff reaction) on HEK293T NIS 02; assay type: cell-based; design: host or cells: HEK293T (lentiviral transduction, puromycin selection, GFP sorting; lines NIS 02 and NIS C)
FRTL-5 cells = assay: Neutral red uptake viability assay, FRTL-5; conditions: for NR IC20 FRTL-5: mean±SD, 2 h exposure
NIS [11] = target: T1, NIS; conditions: FRTL-5, RAIU, ref Buckalew et al., 2020, cited from earlier work; for IC50: read-out: Data from literature NIS IC50
HEK293T NIS C cells = assay: Neutral red uptake viability assay, HEK293T NIS C; conditions: for NR IC20 HEK293T NISC: mean±SD, 2 h exposure
[12] = ref PubChem https://pubchem.ncbi.nlm.nih.gov/; cited from earlier work
HEK293T NIS02 cells = assay: Neutral red uptake viability assay, HEK293T NIS02; conditions: read-out: NR IC20 HEK293T NIS02; viability, neutral red assay; mean±SD; 2 h exposure
[13] = mean ± SD, ≥ 3 independent experiments, 2 h exposure, SK reaction
[14] = mean ± SD, ≥ 3 independent experiments, 2 h exposure, SK reaction, read-out: NIS IC50 HEK293T NIS 02

Row | Compound | IC50 (NIS [1]) | NIS IC50 HEK293T NIS C (human NIS [3]; [13]) | IC50 (human NIS [4]; ref US-EPA, 2024) [µM] | Data from literature NIS IC50 (human NIS [4]; ref Wang et al., 2018) | effect of fully active BTS (W/S9, W/cof) on NIS inhibition versus control setups (human NIS [5]) | log Kow [7] | Henry‘s law [9] | IC50 (human NIS [10]; [14]) | NR IC20 FRTL-5 (FRTL-5 cells) | NIS IC50 FRTL-5 (NIS [1]) | Data from literature NIS IC50 (human NIS [4]; ref US-EPA, 2024) | NR IC20 HEK293T NISC (HEK293T NIS C cells) | solubility in water [12] [mg/mL] | NIS IC50 HEK293T NIS 02 (human NIS [10]; [13]) | IC50 (human NIS [4]; ref Buckalew et al., 2020) [µM] | IC50 (NIS [11]) [µM] | further results
1 | CCCCOC(=O)c1ccccc1C(=O)OCCCC [DBP, Dibutylphthalate] | 92.3 ± 11.8 µM | n.e and n.e. | 26.9 | n.e. | statistically significant reduction in NIS inhibition | 4.5 | 1.81x10^-6 atm- m^3/mol | 51.7 µM and 52 µM |  |  |  |  |  |  |  |  | IC20 at 2 h (in vitro): 42 µM; IC20 (human NIS [2]): 63.1 µM; IC20 (human NIS [4]; ref Dong et al., 2019): 26.9 µM; IC20 (human NIS [4]; ref Hallinger et al., 2017): 191 µM; IC20 (human NIS [5]): 5.57 ± 4.6 µM; Data from literature NIS IC50 (human NIS [6]): n.e.; increase of IC20 by preincubation in fully active BTS setup compared to the denatured BTS setup (human NIS [8]; W/S9, W/cof vs D S9, W/cof): more than ninefold
2 | CCOc1cc(C(C)(C)C)ccc1C1COC(c2c(F)cccc2F)=N1 (stereo not shown) [ETX, Etoxazole, reference compound] |  |  |  |  | no biotransformation-related effect changes were detected |  |  |  |  |  |  |  |  |  |  |  | IC20 (in vitro): 28.8 µM; IC50 (human NIS [3]): 11.7 ± 8 µM; IC20 (human NIS [8]; read-out: NIS inhibition IC20 SM): 0.61 µM; IC50 (human NIS [10]; NIS IC50 HEK293T NIS 02): 7.1 ± 4.3 µM
3 | Cn1cc[nH]c1=S [MMI, Methimazole, reference compound] |  | n.e and n.e./ n.e. |  |  |  | -0.34 |  |  | n.e. / n.e. | n.e and n.e. / n.e. | n.e. | n.e./ n.e. | 200 (≈ 1750 mM) | n.e and n.e./ n.e. |  |  | Data from literature NIS IC50 (human NIS [4]; ref Buckalew et al., 2020): n.e.; Data from literature NIS IC50 (human NIS [4]; ref Hallinger et al., 2017): n.e.; Data from literature NIS IC50 (human NIS [4]; ref Wang et al., 2019): n.e.; Data from literature NIS IC50 (NIS [11]): n.e.
4 | O=C(O)C(F)(F)C(F)(F)C(F)(F)C(F)(F)C(F)(F)C(F)(F)C(F)(F)F [PFOA, Perfluorooctanoic acid] |  | n.e and n.e./ n.e. |  | n.e. |  |  |  |  | n.e. / n.e. | n.e and n.e. / n.e. | n.e. | n.e./ n.e. | 3.3 (≈ 7.97 mM) | n.e and n.e. / n.e. | 75.9 | 25.1 | 
5 | O=S(=O)(O)C(F)(F)C(F)(F)C(F)(F)C(F)(F)C(F)(F)C(F)(F)C(F)(F)C(F)(F)F [PFOS, Perfluorooctane sulfonate] | 9.3 µM and 9.31 µM | n.e and n.e. / n.e. | 20.5 |  |  | -1.08 | 4.34x10^-7 atm- m^3/mol | 30.9 ± 21.7 µM | n.e. |  |  | n.e. / n.e. |  |  | 1.3 | 0.4 | IC50 (human NIS [4]; ref Wang et al., 2018): 16.6 µM; IC50 (human NIS [4]; ref Wang et al., 2019): 17 µM; effect of fully active BTS (W/S9, W/cof) on NIS inhibition versus control setups (human NIS [8]; two-way ANOVA, p < 0.05): no significant differences were observed
6 | CC(C)(c1cc(Br)c(O)c(Br)c1)c1cc(Br)c(O)c(Br)c1 [TBBPA, Tetrabromobisphenol A] | 91.8 ± 10.8 µM |  | 91.1 |  |  | 4.75 | 2.0x10^-7 atm- m^3/mol | 30.1 ± 11.8 µM |  |  |  |  |  |  |  |  | IC20 (FRTL-5 cells; read-out: NR IC20 FRTL-5, mean±SD, 2 h exposure): 33.4 µM; IC50 (human NIS [3]; mean ± SD, ≥ 3 independent experiments, 2 h exposure, SK reaction, read-out: NIS IC50 HEK293T NIS C): 54 ± 27.1 µM; IC20 (HEK293T NIS02 cells): 66.8 µM; IC20 (HEK293T NIS C cells; read-out: NR IC20 HEK293T NISC, mean±SD, 2 h exposure): 57.6 µM

— PMC12198292, “Advancing in vitro assessment of iodide uptake inhibition: integrating a novel biotransformation pretreatment step” (Archives of Toxicology, 2025)
